From US9700578B2, “Use of nitrite salts for the treatment of cardiovascular conditions” (The United States of America as represented by the …, priority 2003, dated 2017)

Key:
forearm circulation = assay: Sodium nitrite infusion into the brachial artery, forearm blood flow by venous-occlusion plethysmography; conditions: 8 μmol/min into brachial artery for 5 minutes
Text: The protocol was approved by the Institutional Review Board of the National Heart, Lung and Blood Institute, and informed consent was obtained from all volunteer subjects. […] An additional 10 subjects returned three-six months later for a second series of experiments with low dose nitrite infusion. […] No volunteer subject was allowed to take any medication (oral contraceptive agents allowed), vitamin supplements, herbal preparations, nutriceuticals or other “alternative therapies” for at least one month prior to study and were not be allowed to take aspirin for one week prior to study.
Brachial artery and antecubital vein catheters were placed into the arm, with the intraarterial catheter connected to a pressure transducer for blood pressure measurements and an infusion pump delivering normal saline at 1 mL/min. After 20 minutes of rest, baseline arterial and venous blood samples were obtained and forearm blood flow measurements were made by strain gauge venous-occlusion plethysmography, as previously reported (Panza et al., Circulation, 87, 1468-74, 1993). A series of 7 blood flow measurements were averaged for each blood flow determination. A series of measurements termed Parts I and II were performed in randomized order to minimize a time effect on the forearm blood flow response during nitrite infusion.
Part I: Following 20 minutes of 0.9% NaCl (saline) solution infusion at 1 mL/min into the brachial artery, arterial and venous blood samples were obtained for the assays described below and forearm blood flow measured. Exercise was performed by repetitive hand-grip at one-third of the predetermined maximum grip strength using a hand-grip dynamometer (Technical Products Co.) (Gladwin et al., Proc Natl Acad Sci USA, 97, 9943-8, 2000; Gladwin et al., Proc Natl Acad Sci USA, 97, 11482-11487, 2000; Cannon et al., J Clin Invest, 108, 279-87, 2001). Each contraction lasted for 10 seconds followed by relaxation for 5 seconds. Following 5 minutes of exercise, forearm blood flow measurements were obtained during relaxation phases of exercise, and arterial and venous samples collected. Following a 20-minute rest period with continued infusion of saline into the brachial artery, repeated baseline blood samples and forearm blood flow measurements were obtained. L-NMMA was then infused at a rate of 1 mL/min (8 μmol/min) into the brachial artery. Following 5 minutes of L-NMMA infusion, forearm blood flow was measured, and arterial and venous blood samples obtained. Forearm exercise was then initiated in that arm during continued L-NMMA infusion. Forearm blood flow was measured and blood samples obtained after 5 minutes of exercise during continued L-NMMA infusion (FIG. 1).
Part II: After a 30 minute rest period with continued infusion of saline, baseline measurements were obtained, the saline infusion was then stopped, and infusion of nitrite (NaNO2 36 μmol/ml in 0.9% saline) at 1 ml/min was started. […] For the final 9 subjects studied, 0.01-0.03 mM sodium bicarbonate was added to the normal saline, so as to titrate pH to 7.0-7.4. The nitrite solution was light protected and nitrite levels and free NO gas in solution measured by reductive chemiluminescence after all experiments (Gladwin et al., J Biol Chem, 21, 21, 2002).

[1] = test system: hypoxic-induced pulmonary hypertension; assay: Comparison of inhaled nitrite and NO gas during hypoxic-induced pulmonary vasoconstriction: efficacy and duration; type: in vivo, newborn lambs; conditions: hypoxia
Text: NO gas was introduced into the inspiratory limb of the breathing circuit. The inspired concentration of NO was continuously measured by chemiluminescence (CLD 700 AL, Eco Physics Inc, Ann Arbor, Mich.) in the inspiratory limb of the ventilator loop.
efficacy and duration of effect. This protocol was designed to compare the efficacy of nitrite with the clinical standard, 20 ppm inhaled NO gas. […] A second purpose was to determine the duration of effect of a short nitrite nebulization versus NO gas inhalation on hemodynamic and physiological measurements during prolonged hypoxic-induced pulmonary vasoconstriction. After baseline measurements were performed, the lambs were made hypoxic as described above for 35 minutes. Ten minutes after initiation of hypoxia, a 20-minute period of NO gas inhalation was initiated (20 ppm), with continuation of hypoxia for 5 minutes after cessation of NO gas delivery. Lambs were then allowed to recover for one hour. Again, after baseline measurements were made, a second 90-minute period of hypoxia was initiated.

[2] = test system: hepatic ischemia-reperfusion injury; assay: Hepatic ischemia-reperfusion (I/R) injury; type: in vivo, mice
Procedure: Carboxy-PTIO [2-(4-Carboxyphenyl)-4,4,5,5-tetramethylimidazoline-1-oxyl-3-oxide potassium salt], a direct intravascular NO scavenger, was utilized to inhibit NO dependent effects following hepatic I/R injury. Carboxy-PTIO (Alexis Biochemicals) was dissolved in phosphate buffered saline and administered intravenously at a dose of 1 mg/Kg in a volume of 50 μL at 30 minutes prior to hepatic ischemia Zinc(II) Deuteroporphyrin IX-2,4-bisethyleneglycol (ZnDBG) (Alexis Biochemicals), a heme oxygenase-1 inhibitor was injected i.p. at a dose of 10 mg/Kg in a volume of 50 μL at 30 minutes prior to the induction of hepatic ischemia.
All of the mice utilized in the present studies were C57BL6/J at 8-10 weeks of age obtained from the Jackson Laboratories (Bar Harbor, Me.). In additional experiments of hepatic I/R injury we utilized mice completely deficient (−/−) in endothelial nitric oxide synthase (eNOS). eNOS−/− mice were originally generously donated from Dr. Paul Huang (Mass. General Hospital) and generated in our breeding colony at LSU-Health Sciences Center. eNOS−/− mice were utilized at 8-10 weeks of age.
The hepatic I/R protocol is depicted in FIG. 6A and has been described previously (Hines et al., Biochem Biophys Res Commun 284:972-976, 2001; Hines et al., Am J Physiol Gastrointest Liver Physiol 284:G536-545, 2001). Mice were anesthetized with the combination of ketamine (100 mg/kg) and zylazine (8 mg/kg) and a midline laparotomy was performed to expose the liver. Mice were then injected with heparin (100 μg/kg, i.p.) to prevent blood clotting. The left lateral and median lobes of the liver were rendered ischemic by completely clamping the hepatic artery and the portal vein using microaneurysm clamps. This experimental model results in a segmental (70%) hepatic ischemia. This method of partial ischemia prevents mesenteric venous congestion by allowing portal decompression throughout the right and caudate lobes of the liver. The liver was then repositioned in the peritoneal cavity in its original location for 45 minutes. The liver was kept moist using gauze soaked in 0.9% normal saline. In addition, body temperature was maintained at 37° C. using a heat lamp and monitoring body temperature with a rectal temperature probe. Sham surgeries were identical except that hepatic blood flow was not reduced with a microaneurysm clamp. The duration of hepatic ischemia was 45 minutes in all experiments, following which the microaneurysm clamps were removed. The duration of hepatic reperfusion was 5 hours in the studies of serum liver transaminase levels (i.e., AST or ALT) and 24 hours for the studies of liver histopathology (such as hepatocellular infarction).
Serum samples were analyzed for aspartate aminotransferase (AST) and alanine aminotransferase (ALT) using a spectrophotometric method (Sigma Chemical Co., St. Louis, Mo.) (Harada et al., Proc Natl Acad Sci USA 100:739-744, 2003). These enzymes are liver specific and are released from the liver during injury (Hines et al., Biochem Biophys Res Commun 284:972-976, 2001; Hines et al., Am J Physiol Gastrointest Liver Physiol 284:G536-545, 2001). […]

[3] = test system: U46619-induced normoxic pulmonary hypertension; type: in vivo; conditions: 2 μg/kg/min i.v. for 30 minutes; before 24±1
Procedure: This is a simple, inexpensive, and widely available clinical nebulizer system, though other systems could be used.
Six additional lambs were studied in order to evaluate the effects of nitrite nebulization on normoxic pulmonary hypertension. Stable normoxic pulmonary hypertension was induced by an infusion of a stable endoperoxide analog of thromboxane (U46619-9,11-dideoxy-11α-epoxymethano-prostaglandin F2α, Cayman Chemicals, Ann Arbor, Mich.). The drug was dissolved in saline and was administered at a rate of 2 μg/kg/min into the femoral venous catheter for 30 minutes. Nitrite was nebulized for inhalation during the last 20 minutes of the infusion (FIG. 11).

SMILES: CNC(=N)NCCC[C@H](N)C(=O)O [L-NMMA, L-NG-monomethyl-arginine]
- reduction of forearm blood flow (forearm circulation): approximately 30%

SMILES: [N]=O [NO gas, nitric oxide]
- loss of the vasodilating effect after termination of delivery ([1]; 20 ppm): in a matter of seconds
- reduction (correction) of hypoxic-induced pulmonary hypertension ([1]; NO gas 20 ppm or nitrite aerosol for 20 minutes): about 80%

SMILES: CC1(C)N([O])C(c2ccc(C(=O)[O-])cc2)=[N+]([O-])C1(C)C.[K+] [PTIO, 2-(4-Carboxyphenyl)-4,4,5,5-tetramethylimidazoline-1-oxyl-3-oxide potassium salt]
- effect on nitrite protection (serum AST) ([2]; nitrite 24 μM + PTIO, full factorial design): completely inhibited protective effects of nitrite

SMILES: CCCCCC(O)/C=C/C1C2CC(CO2)C1C/C=C\CCCC(=O)O (stereo not drawn) [U46619, 9,11-dideoxy-11α-epoxymethano-prostaglandin F2α]
- pulmonary artery pressure during infusion [3]: 51±4 mmHg

SMILES: O=[N+]([O-])[O-].[Na+] [sodium nitrate]
- serum elevations of liver transaminases AST and ALT ([2]; intraperitoneal during hepatic ischemia, 45 min ischemia, 5 h reperfusion, nitrite 1.2-480 nmoles, nitrate 48 nmoles): did not exert any protective effects
